We go through 14 molecules from PubChem BioAssay (NCI).

Several values for one entry are separate records, joined by “and”; a condition that tells them apart may be missing. Equal entries are not always repeated.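 All cell lines were grown in 96-well plates and treated with compound for 48 hours. Abbreviation: GI50, concentration required for 50% inhibition of growth. Definition used: TGI = concentration required for complete inhibition of growth.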

Among the test systems are SF-268 CNS; SF-539 CNS; UACC-62 melanoma; OVCAR-8 ovarian; HCT-15 colon; BT-549 breast; TK-10 renal; HCC-2998 colon; MCF7 breast; RXF 393 renal.
Holding throughout (test): growth of human tumour cells (NCI), 48 h

With `O=C1c2ccccc2C(=O)c2c1ccc1c3ccccc3n(Cc3ccccc3)c21`, the TGI in the experiment on SF-268 CNS, in the experiment on SF-539 CNS, in the experiment on UACC-62 melanoma, in the experiment with OVCAR-8 ovarian and with HCT-15 colon was more than 100 µM in each case.
In the case of `Cc1cc(N)c2ccccc2[n+]1CCCCCCCCCC[n+]1c(C)cc(N)c2ccccc21`, the TGI in the experiment with SF-268 CNS was 3.49 µM and 10.3 µM and 32.5 µM; in the experiment on SF-539 CNS, 1.44 µM and 9.96 µM and 3.8 µM; in the experiment on OVCAR-8 ovarian it was 1.99 µM and 13.8 µM; in the experiment on BT-549 breast, 1.57 µM and 3.29 µM and 5.32 µM; in the experiment with TK-10 renal, 7.63 µM and 15.5 µM and 24.3 µM; with HCT-15 colon, > 50 µM and 25.9 µM and 81.9 µM. In addition, in the experiment with HCC-2998 colon, the TGI is 4.52 µM and 2.76 µM and 9.8 µM. In addition, the GI50 is 0.241 µM and 1.56 µM in the experiment with SF-539 CNS; 0.189 µM in the experiment on UACC-62 melanoma; 0.218 µM in the experiment with OVCAR-8 ovarian; 0.304 µM and 1.5 µM with BT-549 breast; 0.684 µM and 3.13 µM with TK-10 renal; 1.25 µM and 3.67 µM in the experiment on HCT-15 colon. Besides, the GI50 in the experiment with HCC-2998 colon was 0.253 µM.
Turning to `O=C(CC(C(=O)O)N1CCOCC1)c1ccccc1` (stereo unspecified), the TGI is 31.2 µM with MCF7 breast; 44.6 µM in the experiment on SF-268 CNS; 45.7 µM in the experiment with SF-539 CNS; 29.5 µM with UACC-62 melanoma; 94.8 µM in the experiment with OVCAR-8 ovarian; 33.5 µM in the experiment with BT-549 breast. Besides, the figures for the TGI in the experiment with TK-10 renal, in the experiment on HCT-15 colon and in the experiment with RXF 393 renal were 30.1 µM, 40.8 µM and 34.3 µM, respectively.
Consider `CCCCCCCCCCCCCCCCCC1=NC(C)(C)CN1CCO`, for which the GI50 was 1.78 µM in the experiment on MCF7 breast; 1.8 µM in the experiment with SF-268 CNS; 1.75 µM in the experiment with SF-539 CNS; 1.68 µM with UACC-62 melanoma; 19.8 µM with BT-549 breast; 1.73 µM with TK-10 renal. Besides, the GI50 is 1.61 µM with HCT-15 colon and 1.71 µM with HCC-2998 colon. Also, the TGI was 3.32 µM in the experiment with MCF7 breast; 3.27 µM in the experiment with SF-268 CNS; 3.15 µM in the experiment with SF-539 CNS; 3.18 µM in the experiment on UACC-62 melanoma; 48 µM in the experiment with BT-549 breast; 3.31 µM in the experiment on TK-10 renal. Further, the values for the TGI in the experiment on HCT-15 colon and with HCC-2998 colon were 3 µM and 3.11 µM, respectively.
Take `N#CC(=C=[N-])[n+]1ccc(Cl)cc1`: the TGI in the experiment with SF-268 CNS was 28.2 µM; with SF-539 CNS it was 43.2 µM; in the experiment on UACC-62 melanoma, 29.9 µM; with OVCAR-8 ovarian, 37.9 µM; in the experiment on TK-10 renal it was 45.8 µM; with HCT-15 colon, 28.6 µM. Besides, in the experiment on RXF 393 renal, the TGI turned out to be 31.5 µM.
As to `O=C1/C(=C/c2ccccc2)CN(C(=O)OCC(Cl)(Cl)Cl)C/C1=C\c1ccccc1`, the TGI in the experiment on SF-268 CNS came out at 15.3 µM; with SF-539 CNS it was 14 µM; in the experiment with UACC-62 melanoma it was 9.03 µM; with OVCAR-8 ovarian, 3.78 µM; with TK-10 renal, 17.1 µM; in the experiment with HCT-15 colon, 4.32 µM. Further, the TGI in the experiment on RXF 393 renal stood at 3.87 µM.
With `CCOc1cccnc1/C=N/NC(N)=S`, the GI50 in the experiment with MCF7 breast is 3.25 µM; in the experiment with SF-268 CNS, 3.42 µM; in the experiment on SF-539 CNS it was 2.8 µM; in the experiment on OVCAR-8 ovarian, 3.48 µM; in the experiment with BT-549 breast, 6.02 µM; with HCT-15 colon it was 4.08 µM. The TGI is more than 100 µM in the experiment on MCF7 breast; more than 100 µM in the experiment with SF-268 CNS; 9.59 µM in the experiment on SF-539 CNS; more than 100 µM in the experiment on OVCAR-8 ovarian; more than 100 µM in the experiment on BT-549 breast; more than 100 µM with HCT-15 colon.
On to `CCC1NCC(=O)c2c1[nH]c1ccccc21` (stereo unspecified), for which the TGI in the experiment on SF-268 CNS, in the experiment on SF-539 CNS, in the experiment with UACC-62 melanoma, in the experiment with OVCAR-8 ovarian, in the experiment with TK-10 renal and in the experiment with HCT-15 colon was more than 100 µM throughout. Also, in the experiment with HCC-2998 colon, the TGI was more than 100 µM.
With `CN1CC(C(=O)NC2(C)OC3(O)C4CCCN4C(=O)C(Cc4ccccc4)N3C2=O)C=C2c3cccc4[nH]cc(c34)CC21` (stereo unspecified), the TGI with MCF7 breast is more than 100 µM; in the experiment on SF-268 CNS it was 29.6 µM; in the experiment on SF-539 CNS it was 39 µM; in the experiment with UACC-62 melanoma it was 34.7 µM; with OVCAR-8 ovarian it was 53.7 µM; in the experiment on BT-549 breast, 43 µM. The results for the TGI with TK-10 renal, in the experiment on HCT-15 colon and in the experiment on RXF 393 renal were 41.4 µM, 45.9 µM and 40.5 µM, respectively.
Take `Cc1cccc(CC(C)(C)C)c1NC(=O)C(=O)C(C(=O)c1ccc2ccccc2c1)C1OC(=O)c2ccccc21` (stereo unspecified): the TGI in the experiment on SF-268 CNS was found to be 30.6 µM; in the experiment on SF-539 CNS, 11.8 µM; in the experiment with UACC-62 melanoma, 21.7 µM; in the experiment on HCT-15 colon it was 41.4 µM; in the experiment on HCC-2998 colon, 25.2 µM; with RXF 393 renal, 14.5 µM.
Take `CCN1CC2(C)CC[C@@H](OC)C34[C@@H]2[C@H](OC(C)=O)C2(OCO[C@@]25C[C@H](OC)C2C[C@]3(O)[C@@H]5[C@H]2O)[C@H]14`: the TGI in the experiment with SF-268 CNS, in the experiment on SF-539 CNS, in the experiment with OVCAR-8 ovarian, with TK-10 renal, in the experiment with HCC-2998 colon and in the experiment on RXF 393 renal was more than 100 µM each time.
As to `COc1ncnc2c(-c3ccco3)cn(COCc3ccccc3)c12`, the GI50 with SF-268 CNS is more than 50 µM; with SF-539 CNS, more than 50 µM; in the experiment with UACC-62 melanoma it was 8.2 µM; with OVCAR-8 ovarian it was more than 50 µM; in the experiment on TK-10 renal it was 17.8 µM; in the experiment on HCC-2998 colon, more than 50 µM. Further, the GI50 in the experiment with RXF 393 renal is more than 50 µM. For the same molecule, the TGI in the experiment on SF-268 CNS, with SF-539 CNS, with UACC-62 melanoma, in the experiment with OVCAR-8 ovarian, with TK-10 renal and in the experiment on HCC-2998 colon was more than 50 µM each time. In the experiment on RXF 393 renal, this molecule came in with a TGI of more than 50 µM.
As for `C/C(=N\NC(=S)N1CCC(C2CCN(C(=S)N/N=C(\C)c3ccccn3)CC2)CC1)c1ccccn1`, the TGI in the experiment on SF-268 CNS, in the experiment on SF-539 CNS, in the experiment on UACC-62 melanoma, in the experiment with OVCAR-8 ovarian, in the experiment with TK-10 renal and in the experiment on HCC-2998 colon was more than 100 µM in each case. Also, the TGI in the experiment on RXF 393 renal is more than 100 µM.
Turning to `O=C(OCc1nc2ccc(Br)cc2c(=O)n1-c1ccccc1)c1ccccc1O`, the TGI in the experiment on SF-268 CNS, with SF-539 CNS, in the experiment on UACC-62 melanoma, in the experiment with OVCAR-8 ovarian, with TK-10 renal and with HCC-2998 colon was more than 100 µM each time. This molecule also returned a TGI with RXF 393 renal of more than 100 µM.
